Measurements taken from US20230085307A1, “PYRIDAZINONE COMPOUND AND HERBICIDE” (NISSAN CHEMICAL CORPORATION, priority 2019, published 2023).

test system: barnyard grass; assay: Test Example 3: herbicidal effect by foliage application, Wagner pot (Table 18, symbol H); format: in vivo, barnyard grass (Echinochloa crus-galli); conditions: 320 g/ha
Summary of the method: (§1)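 Plants were sown in alluvial soil held under 0.1–0.5 cm standing water and grown 14 days in a greenhouse at 25–30 °C. An emulsifiable formulation, water-diluted to the set dose, was then sprayed onto the foliage, and effects were scored three weeks later using previously defined criteria.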

Row | Structure (SMILES) | herbicidal effect on H (barnyard grass), rating 0-5
1 | CCCC(=O)Oc1c(OC)nn(C)c(=O)c1-c1c(-c2ccc(F)cc2OC)sc2ccccc12 [1-177] | 4 (Herbicidal rate of 70% or more and less than 90%)

test system: Chinese sprangletop; assay: Test Example 3: herbicidal effect by foliage application, Wagner pot (Table 18, symbol D); format: in vivo, chinese sprangletop (Leptochloa chinensis); conditions: 320 g/ha
Summary of the method: as §1

Row | Structure (SMILES) | herbicidal effect on D (Chinese sprangletop), rating 0-5
2 | CCCC(=O)Oc1c(OC)nn(C)c(=O)c1-c1c(-c2ccc(F)cc2OC)sc2ccccc12 [1-177] | 0 (Herbicidal rate of 5% or less (almost no effect))

test system: rice flat sedge; assay: Test Example 3: herbicidal effect by foliage application, Wagner pot (Table 18, symbol E); format: in vivo, rice flat sedge (Cyperus iria); conditions: 320 g/ha
Summary of the method: as §1

Row | Structure (SMILES) | herbicidal effect on E (rice flat sedge), rating 0-5
3 | CCCC(=O)Oc1c(OC)nn(C)c(=O)c1-c1c(-c2ccc(F)cc2OC)sc2ccccc12 [1-177] | 4 (Herbicidal rate of 70% or more and less than 90%)

test system: southern crabgrass; assay: Test Example 4: herbicidal effect by soil treatment (Table 19, symbol F); format: in vivo, southern crabgrass (Digitaria ciliaris); conditions: AAH 320 g/ha
Summary of the method: (§2)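 Pre-emergence style soil spray: seeds under ~1.5 cm sterilized diluvial soil received a uniform coat of emulsion diluted to the predetermined herbicide amount. Greenhouse 25–30° C; readout at week three on previously defined criteria.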

Row | Structure (SMILES) | F: southern crabgrass, herbicidal effect rating
4 | CCCC(=O)Oc1c(OC)nn(C)c(=O)c1-c1c(-c2ccc(F)cc2OC)sc2ccccc12 [1-177] | 3 (Herbicidal rate of 40% or more and less than 70%)

test system: green foxtail; assay: Test Example 4: herbicidal effect by soil treatment (Table 19, symbol G); format: in vivo, green foxtail (Setaria viridis); conditions: AAH 320 g/ha
Summary of the method: as §2

Row | Structure (SMILES) | G: green foxtail, herbicidal effect rating
5 | CCCC(=O)Oc1c(OC)nn(C)c(=O)c1-c1c(-c2ccc(F)cc2OC)sc2ccccc12 [1-177] | 5 (Herbicidal rate of 90% or more (almost completely withered))

test system: barnyard grass; assay: Test Example 4: herbicidal effect by soil treatment (Table 19, symbol H); format: in vivo, barnyard grass (Echinochloa crus-galli); conditions: AAH 320 g/ha
Summary of the method: as §2

Row | Structure (SMILES) | H: barnyard grass, herbicidal effect rating
6 | CCCC(=O)Oc1c(OC)nn(C)c(=O)c1-c1c(-c2ccc(F)cc2OC)sc2ccccc12 [1-177] | 3 (Herbicidal rate of 40% or more and less than 70%)

test system: wild oat; assay: Test Example 4: herbicidal effect by soil treatment (Table 19, symbol I); format: in vivo, wild oat (Avena fatua); conditions: AAH 320 g/ha
Summary of the method: as §2

Row | Structure (SMILES) | I: wild oat, herbicidal effect rating
7 | CCCC(=O)Oc1c(OC)nn(C)c(=O)c1-c1c(-c2ccc(F)cc2OC)sc2ccccc12 [1-177] | 3 (Herbicidal rate of 40% or more and less than 70%)

test system: blackgrass; assay: Test Example 4: herbicidal effect by soil treatment (Table 19, symbol J); format: in vivo, blackgrass (Alopecurus myosuroides); conditions: AAH 320 g/ha
Summary of the method: as §2

Row | Structure (SMILES) | J: blackgrass, herbicidal effect rating
8 | CCCC(=O)Oc1c(OC)nn(C)c(=O)c1-c1c(-c2ccc(F)cc2OC)sc2ccccc12 [1-177] | 0 (Herbicidal rate of 5% or less (almost no effect))

test system: Italian ryegrass; assay: Test Example 4: herbicidal effect by soil treatment (Table 19, symbol K); format: in vivo, Italian ryegrass (Lolium multiflorum); conditions: AAH 320 g/ha
Summary of the method: as §2

Row | Structure (SMILES) | K: Italian ryegrass, herbicidal effect rating
9 | CCCC(=O)Oc1c(OC)nn(C)c(=O)c1-c1c(-c2ccc(F)cc2OC)sc2ccccc12 [1-177] | 0 (Herbicidal rate of 5% or less (almost no effect))

test system: windgrass; assay: Test Example 4: herbicidal effect by soil treatment (Table 19, symbol L); format: in vivo, windgrass (Apera spica-venti); conditions: AAH 320 g/ha
Summary of the method: as §2

Row | Structure (SMILES) | L: windgrass, herbicidal effect rating
10 | CCCC(=O)Oc1c(OC)nn(C)c(=O)c1-c1c(-c2ccc(F)cc2OC)sc2ccccc12 [1-177] | 0 (Herbicidal rate of 5% or less (almost no effect))

test system: velvetleaf; assay: Test Example 4: herbicidal effect by soil treatment (Table 19, symbol M); format: in vivo, velvetleaf (Abutilon theophrasti); conditions: AAH 320 g/ha
Summary of the method: as §2

Row | Structure (SMILES) | M: velvetleaf, herbicidal effect rating
11 | CCCC(=O)Oc1c(OC)nn(C)c(=O)c1-c1c(-c2ccc(F)cc2OC)sc2ccccc12 [1-177] | 0 (Herbicidal rate of 5% or less (almost no effect))

test system: redroot pigweed; assay: Test Example 4: herbicidal effect by soil treatment (Table 19, symbol N); format: in vivo, redroot pigweed (Amaranthus retroflexus); conditions: AAH 320 g/ha
Summary of the method: as §2

Row | Structure (SMILES) | N: redroot pigweed, herbicidal effect rating
12 | CCCC(=O)Oc1c(OC)nn(C)c(=O)c1-c1c(-c2ccc(F)cc2OC)sc2ccccc12 [1-177] | 5 (Herbicidal rate of 90% or more (almost completely withered))

test system: lambsquarters; assay: Test Example 4: herbicidal effect by soil treatment (Table 19, symbol O); format: in vivo, lambsquarters (Chenopodium album); conditions: AAH 320 g/ha
Summary of the method: as §2

Row | Structure (SMILES) | O: lambsquarters, herbicidal effect rating
13 | CCCC(=O)Oc1c(OC)nn(C)c(=O)c1-c1c(-c2ccc(F)cc2OC)sc2ccccc12 [1-177] | 2 (Herbicidal rate of 20% or more and less than 40%)

test system: chickweed; assay: Test Example 4: herbicidal effect by soil treatment (Table 19, symbol P); format: in vivo, common chickweed (Stellaria media); conditions: AAH 320 g/ha
Summary of the method: as §2

Row | Structure (SMILES) | P: chickweed, herbicidal effect rating
14 | CCCC(=O)Oc1c(OC)nn(C)c(=O)c1-c1c(-c2ccc(F)cc2OC)sc2ccccc12 [1-177] | 5 (Herbicidal rate of 90% or more (almost completely withered))

test system: persian speedwell; assay: Test Example 4: herbicidal effect by soil treatment (Table 19, symbol R); format: in vivo, Persian speedwell (Veronica persica); conditions: AAH 320 g/ha
Summary of the method: as §2

Row | Structure (SMILES) | R: persian speedwell, herbicidal effect rating
15 | CCCC(=O)Oc1c(OC)nn(C)c(=O)c1-c1c(-c2ccc(F)cc2OC)sc2ccccc12 [1-177] | 4 (Herbicidal rate of 70% or more and less than 90%)

test system: southern crabgrass; assay: Test Example 5: herbicidal effect by foliage application, plastic box (Table 20, symbol F); format: in vivo, southern crabgrass (Digitaria ciliaris); conditions: foliage application, AAH 320 g/ha, three weeks after application
Summary of the method: (§3)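 Plants were sown into sterilized diluvial soil under about 1.5 cm cover and kept in a greenhouse at 25° C. to 30° C. Fourteen days on, foliage received an even spray of the diluted emulsion. Herbicidal or crop effect was judged three weeks afterwards.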

Row | Structure (SMILES) | F: southern crabgrass, herbicidal effect
16 | CCCC(=O)Oc1c(OC)nn(C)c(=O)c1-c1c(-c2ccc(F)cc2OC)sc2ccccc12 [1-177] | 3 (Herbicidal rate of 40% or more and less than 70%)

test system: green foxtail; assay: Test Example 5: herbicidal effect by foliage application, plastic box (Table 20, symbol G); format: in vivo, green foxtail (Setaria viridis); conditions: foliage application, AAH 320 g/ha, three weeks after application
Summary of the method: as §3

Row | Structure (SMILES) | G: green foxtail, herbicidal effect
17 | CCCC(=O)Oc1c(OC)nn(C)c(=O)c1-c1c(-c2ccc(F)cc2OC)sc2ccccc12 [1-177] | 5 (Herbicidal rate of 90% or more (almost completely withered))

test system: barnyard grass; assay: Test Example 5: herbicidal effect by foliage application, plastic box (Table 20, symbol H); format: in vivo, barnyard grass (Echinochloa crus-galli); conditions: foliage application, AAH 320 g/ha, three weeks after application
Summary of the method: as §3

Row | Structure (SMILES) | H: barnyard grass, herbicidal effect
18 | CCCC(=O)Oc1c(OC)nn(C)c(=O)c1-c1c(-c2ccc(F)cc2OC)sc2ccccc12 [1-177] | 4 (Herbicidal rate of 70% or more and less than 90%)

test system: wild oat; assay: Test Example 5: herbicidal effect by foliage application, plastic box (Table 20, symbol I); format: in vivo, wild oat (Avena fatua); conditions: foliage application, AAH 320 g/ha, three weeks after application
Summary of the method: as §3

Row | Structure (SMILES) | I: wild oat, herbicidal effect
19 | CCCC(=O)Oc1c(OC)nn(C)c(=O)c1-c1c(-c2ccc(F)cc2OC)sc2ccccc12 [1-177] | 3 (Herbicidal rate of 40% or more and less than 70%)

test system: blackgrass; assay: Test Example 5: herbicidal effect by foliage application, plastic box (Table 20, symbol J); format: in vivo, blackgrass (Alopecurus myosuroides); conditions: foliage application, AAH 320 g/ha, three weeks after application
Summary of the method: as §3

Row | Structure (SMILES) | J: blackgrass, herbicidal effect
20 | CCCC(=O)Oc1c(OC)nn(C)c(=O)c1-c1c(-c2ccc(F)cc2OC)sc2ccccc12 [1-177] | 4 (Herbicidal rate of 70% or more and less than 90%)

test system: Italian ryegrass; assay: Test Example 5: herbicidal effect by foliage application, plastic box (Table 20, symbol K); format: in vivo, Italian ryegrass (Lolium multiflorum); conditions: foliage application, AAH 320 g/ha, three weeks after application
Summary of the method: as §3

Row | Structure (SMILES) | K: Italian ryegrass, herbicidal effect
21 | CCCC(=O)Oc1c(OC)nn(C)c(=O)c1-c1c(-c2ccc(F)cc2OC)sc2ccccc12 [1-177] | 1 (Herbicidal rate of 5% or more and less than 20%)

test system: windgrass; assay: Test Example 5: herbicidal effect by foliage application, plastic box (Table 20, symbol L); format: in vivo, windgrass (Apera spica-venti); conditions: foliage application, AAH 320 g/ha, three weeks after application
Summary of the method: as §3

Row | Structure (SMILES) | L: windgrass, herbicidal effect
22 | CCCC(=O)Oc1c(OC)nn(C)c(=O)c1-c1c(-c2ccc(F)cc2OC)sc2ccccc12 [1-177] | 4 (Herbicidal rate of 70% or more and less than 90%)

test system: velvetleaf; assay: Test Example 5: herbicidal effect by foliage application, plastic box (Table 20, symbol M); format: in vivo, velvetleaf (Abutilon theophrasti); conditions: foliage application, AAH 320 g/ha, three weeks after application
Summary of the method: as §3

Row | Structure (SMILES) | M: velvetleaf, herbicidal effect
23 | CCCC(=O)Oc1c(OC)nn(C)c(=O)c1-c1c(-c2ccc(F)cc2OC)sc2ccccc12 [1-177] | 4 (Herbicidal rate of 70% or more and less than 90%)

test system: redroot pigweed; assay: Test Example 5: herbicidal effect by foliage application, plastic box (Table 20, symbol N); format: in vivo, redroot pigweed (Amaranthus retroflexus); conditions: foliage application, AAH 320 g/ha, three weeks after application
Summary of the method: as §3

Row | Structure (SMILES) | N: redroot pigweed, herbicidal effect
24 | CCCC(=O)Oc1c(OC)nn(C)c(=O)c1-c1c(-c2ccc(F)cc2OC)sc2ccccc12 [1-177] | 5 (Herbicidal rate of 90% or more (almost completely withered))

test system: lambsquarters; assay: Test Example 5: herbicidal effect by foliage application, plastic box (Table 20, symbol O); format: in vivo, lambsquarters (Chenopodium album); conditions: foliage application, AAH 320 g/ha, three weeks after application
Summary of the method: as §3

Row | Structure (SMILES) | O: lambsquarters, herbicidal effect
25 | CCCC(=O)Oc1c(OC)nn(C)c(=O)c1-c1c(-c2ccc(F)cc2OC)sc2ccccc12 [1-177] | 4 (Herbicidal rate of 70% or more and less than 90%)

test system: chickweed; assay: Test Example 5: herbicidal effect by foliage application, plastic box (Table 20, symbol P); format: in vivo, common chickweed (Stellaria media); conditions: foliage application, AAH 320 g/ha, three weeks after application
Summary of the method: as §3

Row | Structure (SMILES) | P: chickweed, herbicidal effect
26 | CCCC(=O)Oc1c(OC)nn(C)c(=O)c1-c1c(-c2ccc(F)cc2OC)sc2ccccc12 [1-177] | 5 (Herbicidal rate of 90% or more (almost completely withered))

test system: persian speedwell; assay: Test Example 5: herbicidal effect by foliage application, plastic box (Table 20, symbol R); format: in vivo, Persian speedwell (Veronica persica); conditions: foliage application, AAH 320 g/ha, three weeks after application
Summary of the method: as §3

Row | Structure (SMILES) | R: persian speedwell, herbicidal effect
27 | CCCC(=O)Oc1c(OC)nn(C)c(=O)c1-c1c(-c2ccc(F)cc2OC)sc2ccccc12 [1-177] | 4 (Herbicidal rate of 70% or more and less than 90%)
